Experiments:
Type in all cases: biochemical
[1] = molecular target: PI3Kδ (Homo sapiens, UniProt O00329); assay: PI3Kδ inhibition
[2] = molecular target: PDE2 (Homo sapiens, UniProt O00408); assay: PDE2 inhibition
[3] = system: class I PI3K isoforms; assay: Inhibition of PI3K isoforms; conditions: for inhibition of PI3K: same compounds synthesized by compound 5 as key intermediate (no contaminant)
[4] = molecular target: PI3Kβ (Homo sapiens, UniProt P42338); assay: PI3Kβ inhibition
[5] = molecular target: PI3Kγ (Homo sapiens, UniProt P48736); assay: PI3Kγ inhibition
Chain of PI3Kγ (P48736 whole entry, species assumed): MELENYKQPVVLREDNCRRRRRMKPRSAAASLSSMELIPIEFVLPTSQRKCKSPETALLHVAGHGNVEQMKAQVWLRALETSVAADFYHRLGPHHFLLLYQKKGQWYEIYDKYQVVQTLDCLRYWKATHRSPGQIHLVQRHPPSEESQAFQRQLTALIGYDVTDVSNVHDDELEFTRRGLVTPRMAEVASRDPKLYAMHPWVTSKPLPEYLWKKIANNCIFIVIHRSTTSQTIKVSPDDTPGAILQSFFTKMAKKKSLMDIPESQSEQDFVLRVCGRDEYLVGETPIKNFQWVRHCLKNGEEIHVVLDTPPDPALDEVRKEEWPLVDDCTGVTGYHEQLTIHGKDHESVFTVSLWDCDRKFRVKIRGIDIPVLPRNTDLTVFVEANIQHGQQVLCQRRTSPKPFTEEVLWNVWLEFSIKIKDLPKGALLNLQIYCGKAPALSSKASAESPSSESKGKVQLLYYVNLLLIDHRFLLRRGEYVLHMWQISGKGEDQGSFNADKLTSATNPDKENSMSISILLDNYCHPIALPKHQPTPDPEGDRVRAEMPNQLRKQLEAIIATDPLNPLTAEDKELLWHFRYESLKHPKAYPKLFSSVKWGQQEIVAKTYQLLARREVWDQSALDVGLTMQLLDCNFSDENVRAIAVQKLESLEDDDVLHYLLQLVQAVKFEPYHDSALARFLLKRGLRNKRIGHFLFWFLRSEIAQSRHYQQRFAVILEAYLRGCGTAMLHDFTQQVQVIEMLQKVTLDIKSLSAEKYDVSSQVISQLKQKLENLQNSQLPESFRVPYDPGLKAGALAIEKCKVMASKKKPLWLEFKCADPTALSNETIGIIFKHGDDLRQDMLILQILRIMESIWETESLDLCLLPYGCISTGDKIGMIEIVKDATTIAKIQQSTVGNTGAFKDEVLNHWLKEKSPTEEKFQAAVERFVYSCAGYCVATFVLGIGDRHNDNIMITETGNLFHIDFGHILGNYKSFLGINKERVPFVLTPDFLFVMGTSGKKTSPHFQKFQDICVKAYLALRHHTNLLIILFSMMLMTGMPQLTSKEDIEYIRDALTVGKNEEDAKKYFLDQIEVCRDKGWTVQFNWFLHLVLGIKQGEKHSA

[6] = molecular target: PI3Kα (Homo sapiens, UniProt P42336); assay: PI3Kα inhibition
Chain of PI3Kα (P42336 whole entry, species assumed): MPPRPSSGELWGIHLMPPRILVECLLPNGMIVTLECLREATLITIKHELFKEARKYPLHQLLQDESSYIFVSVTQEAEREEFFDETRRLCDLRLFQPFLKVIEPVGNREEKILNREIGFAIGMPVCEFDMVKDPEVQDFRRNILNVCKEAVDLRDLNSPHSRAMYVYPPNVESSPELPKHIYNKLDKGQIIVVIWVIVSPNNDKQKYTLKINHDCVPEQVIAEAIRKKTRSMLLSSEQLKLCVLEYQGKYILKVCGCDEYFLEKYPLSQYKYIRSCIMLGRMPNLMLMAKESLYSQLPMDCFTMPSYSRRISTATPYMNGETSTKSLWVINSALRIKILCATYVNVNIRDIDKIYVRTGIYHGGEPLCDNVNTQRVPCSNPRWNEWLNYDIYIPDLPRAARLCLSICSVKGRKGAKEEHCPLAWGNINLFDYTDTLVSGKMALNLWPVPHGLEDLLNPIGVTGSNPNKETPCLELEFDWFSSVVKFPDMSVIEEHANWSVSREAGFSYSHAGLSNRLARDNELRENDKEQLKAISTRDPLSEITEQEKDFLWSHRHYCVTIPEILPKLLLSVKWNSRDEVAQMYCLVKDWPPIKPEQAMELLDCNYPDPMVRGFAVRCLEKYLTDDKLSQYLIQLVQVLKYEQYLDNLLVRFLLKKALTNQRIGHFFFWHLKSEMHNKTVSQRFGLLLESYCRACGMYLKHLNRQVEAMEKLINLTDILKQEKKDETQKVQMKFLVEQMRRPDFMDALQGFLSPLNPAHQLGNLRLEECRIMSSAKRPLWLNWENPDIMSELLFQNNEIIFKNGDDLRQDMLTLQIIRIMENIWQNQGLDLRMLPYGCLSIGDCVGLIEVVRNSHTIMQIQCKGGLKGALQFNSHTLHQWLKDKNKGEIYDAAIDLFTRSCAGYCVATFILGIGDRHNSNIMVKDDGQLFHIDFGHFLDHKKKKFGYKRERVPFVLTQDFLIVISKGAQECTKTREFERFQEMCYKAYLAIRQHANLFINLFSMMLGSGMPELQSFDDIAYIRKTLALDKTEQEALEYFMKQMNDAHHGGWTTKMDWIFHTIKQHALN
Chain of PI3Kα (P27986 whole entry partner, species assumed): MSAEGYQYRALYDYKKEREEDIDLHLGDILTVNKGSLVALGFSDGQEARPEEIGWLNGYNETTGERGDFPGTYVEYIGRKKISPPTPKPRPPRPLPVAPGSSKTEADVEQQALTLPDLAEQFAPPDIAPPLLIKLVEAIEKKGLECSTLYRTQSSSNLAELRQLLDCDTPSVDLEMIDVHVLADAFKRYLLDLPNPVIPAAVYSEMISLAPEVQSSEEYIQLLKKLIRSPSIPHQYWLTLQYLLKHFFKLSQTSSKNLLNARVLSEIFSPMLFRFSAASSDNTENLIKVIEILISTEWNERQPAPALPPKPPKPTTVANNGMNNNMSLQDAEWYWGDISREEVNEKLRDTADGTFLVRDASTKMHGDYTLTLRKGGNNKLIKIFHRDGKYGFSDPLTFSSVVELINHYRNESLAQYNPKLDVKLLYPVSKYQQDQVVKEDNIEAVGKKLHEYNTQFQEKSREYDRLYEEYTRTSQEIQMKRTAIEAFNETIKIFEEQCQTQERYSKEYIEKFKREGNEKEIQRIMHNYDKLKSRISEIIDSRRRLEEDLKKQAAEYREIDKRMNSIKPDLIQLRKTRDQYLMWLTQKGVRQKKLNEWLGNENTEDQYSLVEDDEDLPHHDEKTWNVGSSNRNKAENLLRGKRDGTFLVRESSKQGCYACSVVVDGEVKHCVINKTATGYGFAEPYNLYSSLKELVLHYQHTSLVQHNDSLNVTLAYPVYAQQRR

[7] = system: PDE4; assay: PDE4 inhibition; conditions: for IC50: read-out: PDE4 inhibition IC50

Chain of PI3Kδ (O00329 whole entry, species assumed): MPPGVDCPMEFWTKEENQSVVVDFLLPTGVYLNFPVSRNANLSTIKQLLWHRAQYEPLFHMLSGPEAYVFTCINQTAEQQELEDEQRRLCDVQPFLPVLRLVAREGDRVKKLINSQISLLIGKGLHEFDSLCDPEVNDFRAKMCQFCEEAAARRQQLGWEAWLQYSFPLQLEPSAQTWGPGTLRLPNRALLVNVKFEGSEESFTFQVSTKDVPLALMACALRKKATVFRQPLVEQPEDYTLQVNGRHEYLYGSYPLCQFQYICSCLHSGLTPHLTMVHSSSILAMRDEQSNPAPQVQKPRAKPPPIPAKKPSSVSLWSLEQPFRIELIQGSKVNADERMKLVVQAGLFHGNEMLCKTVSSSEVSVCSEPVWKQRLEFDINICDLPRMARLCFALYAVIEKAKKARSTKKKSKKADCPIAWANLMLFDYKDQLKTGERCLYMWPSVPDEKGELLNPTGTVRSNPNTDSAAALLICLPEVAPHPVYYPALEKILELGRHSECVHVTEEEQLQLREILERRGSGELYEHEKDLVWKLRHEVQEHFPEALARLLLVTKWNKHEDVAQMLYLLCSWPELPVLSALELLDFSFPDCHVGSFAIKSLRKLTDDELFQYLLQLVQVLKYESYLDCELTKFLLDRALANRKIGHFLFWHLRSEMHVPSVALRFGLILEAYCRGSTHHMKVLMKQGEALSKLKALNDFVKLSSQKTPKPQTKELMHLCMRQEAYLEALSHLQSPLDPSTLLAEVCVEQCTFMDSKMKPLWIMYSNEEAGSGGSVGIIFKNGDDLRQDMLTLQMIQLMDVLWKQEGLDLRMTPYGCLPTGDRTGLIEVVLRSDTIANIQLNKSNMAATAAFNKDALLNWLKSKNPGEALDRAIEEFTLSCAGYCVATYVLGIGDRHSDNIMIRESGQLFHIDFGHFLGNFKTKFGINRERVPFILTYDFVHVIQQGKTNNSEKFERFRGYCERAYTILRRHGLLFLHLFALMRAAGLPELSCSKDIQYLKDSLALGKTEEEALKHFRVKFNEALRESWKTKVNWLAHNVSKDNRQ
Chain of PI3Kδ (P27986 whole entry partner, species assumed): as the sequence (P27986 whole entry partner, species assumed) above
Chain of PI3Kβ (P42338 whole entry, species assumed): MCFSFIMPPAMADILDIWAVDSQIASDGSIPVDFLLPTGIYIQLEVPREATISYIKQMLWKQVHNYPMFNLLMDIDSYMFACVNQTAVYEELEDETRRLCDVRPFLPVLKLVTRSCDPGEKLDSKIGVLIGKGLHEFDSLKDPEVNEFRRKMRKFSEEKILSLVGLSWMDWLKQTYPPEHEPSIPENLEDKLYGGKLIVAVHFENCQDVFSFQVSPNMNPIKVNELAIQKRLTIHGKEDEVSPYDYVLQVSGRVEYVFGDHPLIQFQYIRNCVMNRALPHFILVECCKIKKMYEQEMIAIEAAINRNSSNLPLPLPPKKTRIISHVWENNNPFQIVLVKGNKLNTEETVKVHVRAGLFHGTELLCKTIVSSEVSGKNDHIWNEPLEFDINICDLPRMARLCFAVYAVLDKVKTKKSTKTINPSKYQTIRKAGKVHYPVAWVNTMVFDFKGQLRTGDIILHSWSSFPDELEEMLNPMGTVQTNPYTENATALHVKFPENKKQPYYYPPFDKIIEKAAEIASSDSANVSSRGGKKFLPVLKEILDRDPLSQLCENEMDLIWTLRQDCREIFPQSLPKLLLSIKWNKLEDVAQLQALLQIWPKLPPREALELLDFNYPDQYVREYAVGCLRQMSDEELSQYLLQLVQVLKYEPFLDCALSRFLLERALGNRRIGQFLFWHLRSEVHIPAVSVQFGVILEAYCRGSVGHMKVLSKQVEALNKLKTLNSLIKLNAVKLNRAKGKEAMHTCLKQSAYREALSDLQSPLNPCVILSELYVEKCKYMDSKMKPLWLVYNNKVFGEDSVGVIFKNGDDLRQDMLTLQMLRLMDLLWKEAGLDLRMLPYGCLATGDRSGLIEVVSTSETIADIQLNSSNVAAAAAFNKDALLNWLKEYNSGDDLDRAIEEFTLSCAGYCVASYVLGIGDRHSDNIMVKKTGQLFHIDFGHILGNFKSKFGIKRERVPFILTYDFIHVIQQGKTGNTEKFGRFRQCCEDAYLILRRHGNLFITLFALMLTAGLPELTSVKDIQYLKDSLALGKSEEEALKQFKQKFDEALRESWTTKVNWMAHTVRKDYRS
Chain of PI3Kβ (P27986 whole entry partner, species assumed): as the sequence (P27986 whole entry partner, species assumed) above

| IC50 [1] | IC50 [2] | IC50 [4] | IC50 [5] | IC50 [6] | IC50 [7] | activity against PDE2 (in words) [2] | SMILES | inhibition of PI3K isoforms (in words) [3] | activity against PDE4 (in words) [7] | inhibition of PI3K [3] |
| --- | --- | --- | --- | --- | --- | --- | --- | --- | --- | --- |
| > 100 µM | 4.7 µM | > 100 µM | > 100 µM | > 100 µM | 5.1 µM |  | COc1ccc(C/N=C2\NC(=O)S\C2=C/c2ccc3c(c2)OCO3)cc1OC [Compound 7p, (4Z,5Z)-5-(Benzo[d][1,3]dioxol-5-ylmethylene)-4-((3,4-dimethoxybenzyl)imino)thiazolidin-2-one] | no inhibition |  |  |
| > 100 µM | > 10 µM | > 100 µM | > 100 µM | 90 µM | > 10 µM | virtually inactive | C/N=C1\NC(=O)S\C1=C/c1ccc2c(c1)OCO2 [Compound 7x, (4Z,5Z)-5-(Benzo[d][1,3]dioxol-5-ylmethylene)-4-(methylimino)thiazolidin-2-one] |  | virtually inactive |  |
|  |  |  |  |  |  |  | O=C1NC(=N\C2CCCC2)/C(=C/c2ccc3c(c2)OCO3)S1 [Compound 7f, (4Z,5Z)-5-(Benzo[d][1,3]dioxol-5-ylmethylene)-4-(cyclopentylimino)thiazolidin-2-one] |  |  | no inhibition |
|  |  |  |  |  |  |  | O=C1NC(=N\CCc2ccc(O)cc2)/C(=C/c2ccc3c(c2)OCO3)S1 [Compound 7e, (4Z,5Z)-5-(Benzo[d][1,3]dioxol-5-ylmethylene)-4-((4-hydroxyphenethyl)imino)thiazolidin-2-one] |  |  | no inhibition |
| 0.76 µM |  | 0.15 µM | 0.12 µM |  |  |  | O=C1NC(=S)/C(=C/c2ccc3c(c2)OCO3)S1 [Compound 4, (Z)-5-(Benzo[d][1,3]dioxol-5-ylmethylene)-4-thioxothiazolidin-2-one] |  |  |  |
| > 100 µM | > 10 µM | > 100 µM | > 100 µM | > 100 µM | > 10 µM | virtually inactive | CC(O)C/N=C1\NC(=O)S\C1=C/c1ccc2c(c1)OCO2 (stereo not shown) [Compound 7z, (4Z,5Z)-5-(Benzo[d][1,3]dioxol-5-ylmethylene)-4-((2-hydroxypropyl)imino)thiazolidin-2-one] |  | virtually inactive |  |
| 43 µM |  | 80 µM | 11 µM | 26 µM |  |  | O=C1NC(=N\[C@@H](Cc2c[nH]c3ccccc23)C(=O)O)/C(=C/c2ccc3c(c2)OCO3)S1 [Compound 7ab] |  |  |  |
| 0.038 µM |  | > 1 µM | 0.06 µM | 0.056 µM |  |  | CSC1=NC(=O)S/C1=C\c1ccc2c(c1)OCO2 [Compound 5, (Z)-5-(Benzo[d][1,3]dioxol-5-ylmethylene)-4-(methylthio)thiazol-2(5H)-one] |  |  |  |
|  |  | 0.6 µM | 0.04 µM |  |  |  | O=C1NC(=O)/C(=C/c2ccc3c(c2)OCO3)S1 [Compound 2, (Z)-5-(Benzo[d][1,3]dioxol-5-ylmethylene) thiazolidine-2,4-dione, reference compound] | potent inhibitor |  |  |
| 62 µM |  | 94 µM | 14.5 µM | 19 µM |  |  | C[C@H](/N=C1\NC(=O)S\C1=C/c1ccc2c(c1)OCO2)C(=O)O [Compound 7aa, (S)-2-((Z)-((Z)-5-(Benzo[d][1,3]dioxol-5-ylmethylene)-2-oxothiazolidin-4-ylidene)amino)propanoic Acid] |  |  |  |

From PMC3755381 (Australian journal of chemistry, 2012)
